Values of other authors as cited in US7807599B2, “Hydroconversion processes employing multi-metallic catalysts and method for making thereof” (Chevron U. S. A. Inc., priority 2007, dated 2010).

System: rats
Conditions: as single oral dose to rats

O=CC(=O)O [glyoxylic]
LD50: 3000 mg/kg
